In experiment [1] the test system is PSA mRNA in LNCaP cells. Description: PSA mRNA expression level in LNCaP cells (real-time PCR). The following applies: 10^−5M, 24 hours, control (DMSO) 1.0. The class given is cell-based, human. On the procedure: (§1) 1) Extraction of Total RNA
(§2) After respectively culturing the LNCaP cells and NIH-3T3-L1 cells co-transfected in 1) to 3) above in 6-well plates, the cells were cultured for 24 hours in EMEM or RPMI 1640 containing 10% fetal calf serum treated with dextran-charcoal and a test compound (dissolved in a small amount of DMSO). Subsequently, total RNA was respectively extracted using Isogen (Wako Pure Chemical Industries).
(§3) 5 μg aliquots of each total RNA obtained in 1) above were reverse-transcribed to first strand cDNA using a Superscript III Kit (Invitrogen) and brought to a final volume of 20 μL. Real-time PCR was carried out using LightCycler FastStart DNA Master SYBR Green I (Roche Diagnostic) in order to quantify expression of PSA mRNA in LNCaP cells and UCP-1 mRNA in NIH-3T3-L1 cells. PCR was carried out under the following conditions in 20 μL of reaction mixture: 50 cycles consisting of denaturing for 3 seconds at 95° C., annealing for 10 seconds at 60° C. and elongating for 25 seconds at 72° C. β-actin mRNA was also simultaneously amplified for use as an internal standard. Real-time PCR value for each transcription product were calculated as a relative ratio to β-actin.

Experiment [2] deals with UCP-1 mRNA in NIH-3T3-L1 cells. Description: UCP-1 mRNA expression level in NIH-3T3-L1 cells (real-time PCR). The class given is cell-based, mouse. To be noted: 10^−5M, 24 hours, control (DMSO) 1.0. The protocol:
as §1, §2, §3
A general note: Quantitative PCR measures a nucleic acid by following its amplification.

The subject of experiment [3] is ORX rats. Description: Total plasma adiponectin level in ORX rats. The class given is in vivo, rat. The following applies: for Plasma adiponectin concentration: solvent 2.2, sham 1.3. On the procedure: 11-week-old, male Sprague-Dawley (SD) rats (320 to 340 g, purchased from Charles River Japan) were housed for 1 week in a room maintained at a light-dark cycle of 12 hours per day and controlled at a set temperature and humidity while allowing free access to a commercially available standard rodent diet and water.
After housing the animals, the animals were anesthetized with ether, and underwent bilateral orchiectomy (orchiectomized rats: ORX) or a sham treatment. After awaking from the anesthesia, the animals were assigned to test groups of 3 to 5 animals each. Starting on the day after surgery, the animals were subcutaneously injected once a day with an injection solution of the test compound (prepared by dissolving the test compound in a small amount of DMSO and diluting with olive oil for animal testing (consisting of 95% olive oil and 5% DMSO)) at the rate of 0.1 ml/100 g of body weight. After 21 days, the rats were sacrificed by exsanguination from the abdominal artery, the ventral prostates and anal levator muscle were excised and weighed followed by immersing in RNAlater (Nacalai Tesque) for extraction of RNA. In addition, soft tissue was removed from the right femur, and immersed in 75% ethanol followed by storage for subsequent measurement of the bone mineral density. Moreover, liver and visceral fat tissue were collected and immersed in RNAlater for RNA extraction.
The inventors of the present invention measured total plasma adiponectin levels in ORX rats treated in the aforementioned section (4)-1). Plasma insulin levels were also measured simultaneously.

The test system of experiment [4] is B6 mice on high-fat diet. Description: High-fat diet B6 mice, 16 weeks (body weight, serum glucose, serum insulin, food intake, visceral fat). The class given is in vivo, mouse. The following applies: 10 mg/kg s.c. every other day. On the procedure:
(§4) 9-week-old B6 mice were divided into a control group, high-fat diet group and high-fat diet+compound of formula (Ia) group of 10 animals each, and housed and observed for 16 weeks. During this period, the compound of formula (Ia) was subcutaneously injected at 10 mg/kg every other day, body weights were measured once a week, and food intake was measured once every 4 weeks.
After 16 weeks, the body weights, bone mineral densities, fat distributions and exercise levels of the mice were measured, followed by collecting blood samples and finally sacrificing the animals and collecting their organs. The average value of body weight, serum glucose concentration and serum insulin concentration of each group after 16 weeks are shown in the following Table 17.

Experiment [5] deals with B6 mice on high-fat diet. Description: Glucose tolerance test in high-fat diet B6 mice. To be noted: high-fat diet mice after 16 weeks, glucose 1 g/kg. The class given is in vivo, mouse. The protocol:
as §4
In addition, glucose tolerance tests were also carried out on the mice after housing for 16 weeks. The mice were divided into groups of 5 mice each, injected at 1 g/kg, and glucose value was then measured over time.

Experiment [6] concerns the target T1, GFP-AR (Homo sapiens, UniProt P10275).
T1 sequence (P10275 1-920): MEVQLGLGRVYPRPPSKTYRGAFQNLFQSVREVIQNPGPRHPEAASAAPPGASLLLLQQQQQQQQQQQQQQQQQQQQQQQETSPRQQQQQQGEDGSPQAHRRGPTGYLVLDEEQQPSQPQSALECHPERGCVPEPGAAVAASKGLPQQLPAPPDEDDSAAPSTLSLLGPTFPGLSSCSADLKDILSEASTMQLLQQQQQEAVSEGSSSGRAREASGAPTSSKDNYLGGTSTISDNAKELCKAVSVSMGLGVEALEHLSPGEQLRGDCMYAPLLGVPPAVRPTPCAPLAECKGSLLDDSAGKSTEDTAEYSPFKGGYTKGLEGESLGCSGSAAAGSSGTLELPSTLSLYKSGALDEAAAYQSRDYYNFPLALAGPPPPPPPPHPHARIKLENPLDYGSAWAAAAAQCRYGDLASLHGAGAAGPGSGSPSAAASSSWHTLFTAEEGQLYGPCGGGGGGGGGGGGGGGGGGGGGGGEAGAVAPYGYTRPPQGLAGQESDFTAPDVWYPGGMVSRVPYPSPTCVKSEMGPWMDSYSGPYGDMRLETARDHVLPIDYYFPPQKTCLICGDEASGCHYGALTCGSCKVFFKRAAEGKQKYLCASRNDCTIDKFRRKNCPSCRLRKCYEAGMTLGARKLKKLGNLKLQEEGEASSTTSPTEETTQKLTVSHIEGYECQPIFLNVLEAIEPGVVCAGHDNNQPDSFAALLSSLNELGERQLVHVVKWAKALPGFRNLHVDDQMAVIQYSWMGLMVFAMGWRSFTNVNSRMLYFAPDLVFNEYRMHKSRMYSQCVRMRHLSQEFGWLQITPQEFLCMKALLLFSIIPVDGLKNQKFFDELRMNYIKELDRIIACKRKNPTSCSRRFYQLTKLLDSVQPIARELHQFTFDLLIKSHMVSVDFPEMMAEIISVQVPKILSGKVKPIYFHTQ
In words: Subnuclear localization of GFP-AR in LNCaP cells. The class given is cell-based. On the set-up: expressed in transfected cells; host or cells: LNCaP cells. The following applies: 10^−5 M, observed 3 hours later, FIG. 2.

The target in experiment [7] is T1, GFP-AR. In words: Subnuclear localization of GFP-AR in NIH-3T3-L1 cells. The format is cell-based, mouse. Also on record: expressed in transfected cells; host or cells: NIH-3T3-L1 cells. To be noted: 10^−5 M, FIG. 4.

Marks after values point to notes of the source that are not given here.

Turning to `CC(=O)[C@H]1CCC2C3CCc4c(C)cccc4C3CC[C@@]21C` (stereo partly shown) [Compound of formula (Ia)], in experiment [1], the “PSA mRNA (relative ratio to β-actin mRNA)” value is on record as 0.8. Moreover, in experiment [2], the “UCP-1 mRNA (relative ratio to β-actin mRNA)” value was 2.1*. In addition, the Plasma adiponectin concentration in experiment [3] (1 mg/Kg) was 2.2* μg/mL; in experiment [3] (10 mg/Kg) it was 2.1* μg/mL. Further, the “Effect on castration-induced increase of plasma adiponectin (in words)” value in experiment [3] (1 or 10 mg/kg) is “did not demonstrate such inhibitory activity on the adiponectin levels”. Besides, the “Body weight versus high-fat diet group (in words)” value in experiment [4] (16 weeks) was “significantly lower than in the high-fat diet group”. Besides, the “Increase of serum glucose and serum insulin concentrations due to the high-fat diet (in words)” value in experiment [4] (16 weeks) is “significantly inhibited”. The “Accumulation of visceral fat (in words)” value in experiment [4] (16 weeks, FIG. 6) is recorded as “roughly the same as that of the rat of the ordinary diet group”. Besides, the “Serum insulin concentration (average)” value in experiment [4] (after 16 weeks, high-fat diet alone 0.46, ordinary diet 0.13) was 0.27^# ng/mL. Further, the “Body weight (average)” value in experiment [4] (after 16 weeks, high-fat diet alone 36.6, ordinary diet 30.7) is on record as 34.9^### g. Also, the “Serum glucose concentration (average)” value in experiment [4] (after 16 weeks, high-fat diet alone 113.2, ordinary diet 75) is reported as 82.2^## mg/dL. Also, the “Glucose value in glucose tolerance test” value in experiment [5] (0 min after injection) is 82.2^## mg/dL; in experiment [5] (15 min after injection) it was 293.6 mg/dL; in experiment [5] (30 min after injection) it was 327.6* mg/dL; in experiment [5] (60 min after injection), 249.4 mg/dL; in experiment [5] (90 min after injection), 262.0* mg/dL; in experiment [5] (120 min after injection) it was 163.0 mg/dL. The “GFP-AR nuclear translocation and foci (dots) formation” value in experiment [6] was “clear foci (dots) were not formed”; in experiment [7], “formed the subnuclear foci (dots)”.

The values are drawn from patent US8623909B2, “Prophylactic/therapeutic agents for lifestyle-related diseases” (priority 2008, dated 2014).
